Results reported in patent US12263143B2, “Ionic channel modulation as a method for treating tumors through inflammasome activation” (priority 2019, dated 2025).

What was measured:
TORID = TORID (Homo sapiens, UniProt Q3YBM2); conditions: prior application WO2018203262A1; cited from earlier work
inflammasome (NLRP3) = conditions: prior application WO2018203262A1; cited from earlier work
two tumor types = conditions: anti-PD-1 resistant mice, WO2018203262A1; cited from earlier work
NLRP3 inflammasome = NLRP3 inflammasome activation in LPS/ATP-treated BMDCs, IL-1β in culture supernatant by ELISA; type: cell-based; conditions: mouse BMDCs, LPS 0.25 μg/ml for 3 hr and ATP 0.5 mM, vs vehicle control (DMSO)
Experimental: (§1) Triggering inflammasome activation: Mouse bone marrow-derived dendritic cells (BMDCs) are treated with LPS and ATP to trigger NLRP3 inflammasome activation in the presence of vehicle control (DMSO) or the indicated ion channels modulators. IL-1β is measured in the culture supernatant by ELISA. • [IL-1β was used to measure the degree of inflammasome activation] • b. Inhibiting TORID-dependent ion flux: CHO-7 cells were transfected with TORID-1 and TORID-2 plasmids. Cells were then loaded with the Na^+-sensitive fluorescent dye-ANG-2-. ANG-2 mean fluorescence intensity (MFI) subtracting in each condition the MFI obtained in Na+-free buffer substituted with NMDG+ is shown. Cells left untreated or treated with the indicated drugs were studied • [MFI was used to measure the degree of inhibition of TORID-dependent ion flux.
(§2) IL-1β was measured in the culture supernatant by ELISA. • B CHO-7 cells were transfected with Tmem176b (TORID-1) and Tmem176a (TORID-2)-mcherry-coding pSecTag2B plasmids. Cells were then loaded with the Na^+-sensitive fluorescent dye Asante NaTRIUM Green 2 (ANG-2). ANG-2 mean fluorescence intensity (MFI) subtracting in each condition the MFI obtained in Na^+-free buffer substituted with NMDG^+ is shown. Cells left untreated or treated with the indicated drugs were studied.

[1] = test system: Tmem176b (TORID-1) and Tmem176a (TORID-2); assay: TORID-dependent ion flux, ANG-2 Na+-sensitive dye MFI in transfected CHO-7 cells; type: cell-based; conditions: CHO-7 cells transfected with Tmem176b and Tmem176a-mcherry pSecTag2B plasmids, vs untreated cells
Experimental: as §1, §2

Chain of TORID (Q3YBM2 whole entry): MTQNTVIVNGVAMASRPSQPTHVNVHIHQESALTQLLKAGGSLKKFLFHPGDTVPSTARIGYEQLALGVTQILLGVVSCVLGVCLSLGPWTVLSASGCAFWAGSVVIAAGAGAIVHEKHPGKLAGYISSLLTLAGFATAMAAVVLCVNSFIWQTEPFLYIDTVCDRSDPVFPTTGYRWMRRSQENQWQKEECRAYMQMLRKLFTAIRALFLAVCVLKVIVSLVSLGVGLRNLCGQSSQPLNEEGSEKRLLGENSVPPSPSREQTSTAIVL

COC(=O)C1=C(C)NC(C)=C([N+](=O)[O-])C1c1ccccc1C(F)(F)F (single isomer, unassigned; (+)) [(+)BAY K8644, Methyl 2,6-dimethyl-5-nitro-4-[2-(trifluoromethyl)phenyl]-1,4-dihydropyridine-3-carboxylate]
TORID activity (TORID): inhibited TORID activity | inflammasome (NLRP3) expression (inflammasome (NLRP3)): increased inflammasome (NLRP3) expression | rate of survival (two tumor types): higher rate of survival

CCN1C[C@]2(COC)[C@H](O)C[C@H](OC)[C@@]34[C@@H]5C[C@@]6(O)[C@H](OC(=O)c7ccccc7)[C@@H]5[C@@](OC(C)=O)([C@@H]([C@H](OC)[C@H]23)[C@@H]14)[C@@H](O)[C@@H]6OC [Aconitine]
NLRP3 inflammasome activation (IL-1β in culture supernatant by ELISA) (NLRP3 inflammasome): enhance NLRP3 inflammasome activation | TORID activity (ANG-2 MFI, Na+-free NMDG+ buffer MFI subtracted) [1]: inhibit TORID activity

CCN(CC)CC(=O)Nc1c(C)cccc1C [Lidocaine]
NLRP3 inflammasome activation (IL-1β in culture supernatant by ELISA) (NLRP3 inflammasome): enhance NLRP3 inflammasome activation | TORID activity (ANG-2 MFI, Na+-free NMDG+ buffer MFI subtracted) [1]: inhibit TORID activity

CCN(CC)CCNC(=O)c1ccc(N)cc1 [Procainamide]
NLRP3 inflammasome activation (IL-1β in culture supernatant by ELISA) (NLRP3 inflammasome): enhance NLRP3 inflammasome activation | TORID activity (ANG-2 MFI, Na+-free NMDG+ buffer MFI subtracted) [1]: inhibit TORID activity
